The subject of test [1] is glioma cell line U87. Put plainly: Live-cell staining with Calcein AM / image analysis in 3-D HuBiogel tumor beads. The class given is cell-based. The settings on record: 3-D HuBiogel tumor beads from U87, Calcein AM, Day 3. How it is done: (§1) The compound sodium trans-[tetrachlorobis(1H-indazole)ruthenate(III)] was tested in a 3-dimentional tumor model derived from glioma cell line U87. Specifically, cells were trypsinized, washed, counted by trypan blue exclusion. Tumor beads were then prepared by mixing 20,000 cells/10 μl of HuBiogel (4 mg/mL) (See U.S. patent application Ser. No. 10/546,506, which is incorporated herein by reference). The 3-D tumor beads were cultivated for 72 hours in multi-well plates with complete media (10% FBS) in a 37° C. incubator +5% CO2. Mini-tumors were treated with various concentrations of the test compound sodium trans-[tetrachlorobis(1H-indazole)ruthenate(III)] in media (final 0.2-0.3% DMSO) or control (DMSO). Repeated drug treatment was done by removing the culture media and replacing with fresh media with drug compound or DMSO. On Day 3, MTT assay and live-cell staining with Calcein AM were performed (5 beads/assay set).
(§2) Statistical analysis of data sets (Average, T-test, GI-50) was performed using MS-Excel program. […] See e.g., Bowles et al., J. Neurosurg., 73:248-253 (1990).

Test [2] deals with glioma cell line U87. Put plainly: MTT assay in 3-dimentional tumor model (HuBiogel) derived from glioma cell line U87. The test is classed as cell-based. The method, then:
as §1, §2
(In general: Tetrazolium dyes change colour on reduction, which living cells bring about.)

In a further test the test system is U87 cell line. The settings on record: Bowles et al., J. Neurosurg., 73:248-253 (1990); cited from earlier work.

Consider 2 molecules from US20130096099A1, “METHOD OF TREATING BRAIN CANCER” (NIIKI PHARMA INC., priority 2010, published 2013).

Entries after “also recorded” stand apart in the source; their conditions may differ.

As to `[Cl][Ru-]([Cl])([Cl])[Cl].[Na+].c1ccc2[nH]ncc2c1.c1ccc2[nH]ncc2c1` [sodium trans-[tetrachlorobis(1H-indazole)ruthenate(III)]], the “tumor killing in live-cell staining/image analysis” value in the test on glioma cell line U87 [1] is recorded as “dose-dependent tumor killing effective”. The “tumor proliferation activity / growth inhibition (MTT assay)” value in the test with glioma cell line U87 [2] (3-D HuBiogel tumor beads from U87, Day 3, FIG. 1) is given as “dose-dependent growth inhibition; also recorded: significantly inhibited tumor proliferation activity”. In addition, the GI50 in the test with glioma cell line U87 [2] (3-D HuBiogel tumor beads from U87, MTT assay on Day 3, read-out: average GI-50 (the drug concentration required for growth inhibition at 50%)) is 95 µM.

`O=NN(CCCl)C(=O)NCCCl` [BCNU, bis-chloronitrosourea]: the “resistance of U87 cell line to drug” value in the test on U87 cell line is “relatively resistant”.
